Reference: patent publication US20240246984A1, “HETEROCYCLIC JAK INHIBITOR” (BEIJING INNOCARE PHARMA TECH CO., LTD., priority 2020, published 2024)
Like-named read-outs stand apart in the source and are kept apart here.

Key:
[1] = molecular target: human recombinant JAK2 protein (Homo sapiens, UniProt O60674); experiment: JAK2 activity inhibition assay (HTRF kinase detection); format: biochemical; conditions: 2.5 μM ATP substrate solution
Method: The effect of the compounds of the present invention on the activity of JAK2 was assessed by using an in vitro kinase detection assay.
The enzymatic activity of JAK2 was assessed by detecting the substrate phosphorylation level in a kinase reaction with a homogeneous time-resolved fluorescence (HTRF) kinase detection kit (Cisbio, 62TK0PEC). A reaction buffer contained an enzyme buffer (1×), 5 mM MgCl2, 1 mM DTT and 0.01% Brij35 from the kit; a human recombinant JAK2 protein (Carna Biosciences, 08-045) was diluted to a kinase reaction solution of 0.15 ng/μL with the reaction buffer; a substrate reaction solution contained 2.5 μM ATP and a biotin-labeled tyrosine kinase substrate diluted to 0.25 μM with the reaction buffer; a detection buffer contained 0.1 ng/μL Eu^3+ labeled cage antibody (Cisbio, 61T66KLB) and 12.5 nM streptavidin-labeled XL665 (Cisbio, 610SAXLB) in the reaction buffer; the compound was dissolved to 10 μM in DMSO, followed by a serial 4-fold dilution with DMSO to a minimum concentration of 0.061 nM. Each concentration was further diluted 40-fold with the reaction buffer. To a 384-well assay plate (Corning, 3674) were added 4 μL of the compound solutions having a series of concentrations and 2 μL of JAK2 kinase reaction solutions. After being mixed evenly, the mixtures were incubated at room temperature for 15 minutes, and then 4 μL of the substrate reaction solutions were added. The reaction mixtures were incubated at room temperature for 30 minutes. Then the reaction mixtures were added with 10 μL of detection solutions, mixed evenly, and allowed to stand at room temperature for 30 minutes. An Envision plate reader (Perkin Elmer) was then used to measure the progress of the reaction at wavelengths of 620 nm and 665 nm. The signal value (absorbance at 665 nm/absorbance at 620 nm) was positively correlated with the degree of substrate phosphorylation, therefore the kinase activity of JAK2 was detected. In this assay, the group without JAK2 kinase protein was the 100% inhibition group, and the group with JAK2 kinase protein but without the test compound was the 0% inhibition group. The compound inhibition curve was plotted using XLfit software and the IC50 of its inhibition was calculated.

[2] = molecular target: human recombinant TYK2 protein (Homo sapiens, UniProt P29597); experiment: TYK2 activity inhibition assay (HTRF kinase detection); format: biochemical; conditions: 11.25 μM ATP substrate solution
Method: The effect of the compounds of the present invention on the activity of TYK2 was assessed by using an in vitro kinase detection assay.
The enzymatic activity of TYK2 was assessed by detecting the substrate phosphorylation level in a kinase reaction with a homogeneous time-resolved fluorescence (HTRF) kinase detection kit (Cisbio, 62TK0PEC). A reaction buffer contained an enzyme buffer (1×), 5 mM MgCl2, 1 mM DTT and 0.01% Brij35 from the kit; a human recombinant TYK2 protein (Carna Biosciences, 08-147) was diluted to a kinase reaction solution of 0.25 ng/μL with the reaction buffer; a substrate reaction solution contained 11.25 μM ATP and a biotin-labeled tyrosine kinase substrate diluted to 0.5 μM with the reaction buffer; a detection buffer contained 0.1 ng/μL Eu^3+ labeled cage antibody (Cisbio, 61T66KLB) and 25 nM streptavidin-labeled XL665 (Cisbio, 610SAXLB) in the reaction buffer; the compound was dissolved to 10 μM in DMSO, followed by a serial 4-fold dilution with DMSO to a minimum concentration of 0.061 nM. Each concentration was further diluted 40-fold with the reaction buffer. To a 384-well assay plate (Corning, 3674) were added 4 μL of the compound solutions having a series of concentrations and 2 μL of kinase reaction solutions. After being mixed evenly, the mixtures were incubated at room temperature for 15 minutes, and then 4 μL of the substrate reaction solutions were added. The reaction mixtures were incubated at room temperature for 40 minutes. Then the reaction mixtures were added with 10 μL of detection solutions, mixed evenly, and allowed to stand at room temperature for 30 minutes. An Envision plate reader (Perkin Elmer) was then used to measure the progress of the reaction at wavelengths of 620 nm and 665 nm. The signal value (absorbance at 665 nm/absorbance at 620 nm) was positively correlated with the degree of substrate phosphorylation, therefore the kinase activity of TYK2 was detected. In this assay, the group without TYK2 kinase protein was the 100% inhibition group, and the group with TYK2 kinase protein but without the test compound was the 0% inhibition group. The compound inhibition curve was plotted using XLfit software and the IC50 of its inhibition was calculated.

[3] = test system: IL-12-induced IFN-γ secretion in NK92 cells; experiment: Inhibition of IL-12-induced IFN-γ secretion in NK92 cells (ELISA); format: cell-based; conditions: Homo sapiens, IL-12 stimulation, 24 hours, read-out: IC50 (NK92IL12/IFN-γ)
Method: The effect of the compounds of the present invention on IFN-γ secretion in IL-12-induced NK92 cells was evaluated by an enzyme-linked immunosorbent assay (ELISA).
The assay principle was generally described below: IL-12R was mainly expressed in activated T-cells, NK cells (NK92 was an NK cell line), DC cells, and B-cells. When binding to IL-12, it activated the JAK2/TYK2 signal transduction pathway within NK cells and activated T lymphocytes, thereby inducing secretion of IFN-γ.
The compound was dissolved to 2.5 mM in DMSO, followed by a serial 4-fold dilution with DMSO to a minimum concentration of 0.31 μM. Each concentration was further diluted 50-fold with an FBS-free MEMα medium (Thermofisher. 12561-056).
NK92 cells (Nanjing Cobioer, CBP60980) were cultured in a complete MEMα medium containing 12.5% FBS (Ausbian, VS500T), 12.5% horse serum (Thermofisher, 16050-122), 0.02 mM folic acid (Sigma, F8758), 0.2 mM inositol (Sigma, 17850), 0.55 mM β-mercaptoethanol (Thermofish, 21985-023), 200 U/mL IL-2 (R&D Systems, 202-1L), and 100 U/mL penicillin-streptomycin mixed liquor (ThermoFisher, 15140122). When covering 80-90% of the culture container surface, the cells were dispersed and plated on a 96-well plate (ThermoFisher, 167425) with 100,000 cells per well (80 μL of the complete MEMα medium without IL-2). The 96-well plate was then incubated overnight in a 37° C., 5% CO2 incubator.
After overnight incubation, 10 μL of the compound and 10 μL of 50 ng/ml IL-12 (R &D Systems, 219-1L) were added to each well and mixed gently, and the 96-well plate was incubated in the 37° C., 5% CO2 incubator for additional 24 hours. The plate was centrifuged at 800 rpm for 10 minutes at room temperature and 50 μL of the supernatant from each well was transferred to another 96-well plate (Sigma, CLS3695) coated with anti-IFN-γ antibody. The amount of IFN-γ secretion was detected following the instruction from the Human IFN-γ DuoSet ELISA assay kit (R & D Systems, DY285B). In this assay, the group in which IL-12 and the test compound were replaced with the MEMα medium was the non-stimulated control group (100% inhibition), and the group with IL-12 and 0.2% DMSO was the stimulated control group (0% inhibition). The compound inhibition curve was plotted using XLfit software and the IC50 of its inhibition was calculated.

[4] = Pharmacokinetic assay in mice (plasma and colon exposure); format: in vivo; conditions: fed female C57 mice, 25 mg/kg PO, 4 hours after dosing; for concentration at 4 h: mouse
Method: Test compounds were formulated into a 5 mg/mL dosing sample (suspension or solution) in a 20% HP-β-CD vehicle.
3 fed female C57 mice were each dosed 5 mL/kg by gavage (PO) at a dose of 25 mg/kg. Blood samples were collected 4 hours after dosing, and then animals were killed by CO2. Colons near the end of the rectum, approximately 4-6 cm in length, were dissected, rinsed with cold saline, blotted dry with absorbent paper, and weighed.
Concentrations of the test compounds in the plasma and intestinal homogenate sample were quantified by LC-MS/MS using an API-4500 mass spectrometer with a plasma limit of quantitation (LOQ) of 1 ng/mL.

[5] = colon homogenate, read-out: Colon exposure
[6] = plasma, LOQ 1 ng/mL, read-out: Plasma exposure

Structure (SMILES) | IC50 [1] [nM] | IC50 [2] [nM] | IC50 [3] [nM] | concentration at 4 h [4, 5] [ng/g] | concentration at 4 h [4, 6] [ng/mL] | Plasma exposure ([4]; plasma, LOQ 1 ng/mL)
O=C(c1ccc(Nc2nc(-c3c(F)cccc3F)n3cc[nH]c(=O)c23)cc1)N1CCOCC1 [Compound 1, 3-(2,6-difluorophenyl)-1-((4-(morpholine-4-carbonyl)phenyl)amino)imidazo[1,5-a]pyrazin-8(7H)-one] | 0.3 | 0.2 | 57 | 5210 | 249 | 
NC(=O)c1ccc(Nc2nc(-c3c(F)cccc3Cl)n3cc[nH]c(=O)c23)cc1 [Compound 28, 4-((3-(2-chloro-6-fluorophenyl)-8-oxo-7,8-dihydroimidazo[1,5-a]pyrazin-1-yl)amino)benzamide] | 0.6 | 0.03 | 38 | 2850 | 15 | 
CN1CCN(C(=O)c2ccc(Nc3nc(-c4c(F)cccc4F)n4cc[nH]c(=O)c34)cc2)CC1 [Compound 29, 3-(2,6-difluorophenyl)-1-((4-(4-methylpiperazine-1-carbonyl)phenyl)amino)imidazo[1,5-a]pyrazin-8(7H)-one] | 0.7 | 0.1 | 75 | 3920 | 75 | 

Now from value to compound:

IC50 [1] [nM] | IC50 [2] [nM] | IC50 [3] [nM] | concentration at 4 h [4, 5] [ng/g] | concentration at 4 h [4, 6] [ng/mL] | Plasma exposure ([4]; plasma, LOQ 1 ng/mL) | Structure (SMILES)
0.8 | 0.1 | 318 | 12200 |  | BLOQ | O=C(c1ccc(Nc2nc(-c3c(F)cccc3F)n3cc[nH]c(=O)c23)cc1)N1CCNCC1 [Compound 30, 3-(2,6-difluorophenyl)-1-((4-(piperazine-1-carbonyl)phenyl)amino)imidazo[1,5-a]pyrazin-8(7H)-one]
0.6 | 0.1 | 65 | 2700 | 50 |  | CC(C)(C(N)=O)c1ccc(Nc2nc(-c3c(F)cccc3F)n3cc[nH]c(=O)c23)cc1 [Compound 34, 2-(4-((3-(2,6-difluorophenyl)-8-oxo-7,8-dihydroimidazo[1,5-a]pyrazin-1-yl)amino)phenyl)-2-methylpropanamide]
0.6 | 0.4 | 3480 | 5090 | 18 |  | CC(C)(C(=O)N1CCNCC1)c1ccc(Nc2nc(-c3c(F)cccc3F)n3cc[nH]c(=O)c23)cc1 [Compound 36, 3-(2,6-difluorophenyl)-1-((4-(2-methyl-1-oxo-1-(piperazin-1-yl)propan-2-yl)phenyl)amino)imidazo[1,5-a]pyrazin-8(7H)-one]
2.8 | 0.4 | 406 |  |  |  | CC(C)(C(=O)O)c1ccc(Nc2nc(-c3c(F)cccc3F)n3cc[nH]c(=O)c23)cc1 [Compound 40, 2-(4-((3-(2,6-difluorophenyl)-8-oxo-7,8-dihydroimidazo[1,5-a]pyrazin-1-yl)amino)phenyl)-2-methylpropanoic acid]
